The assay concerns STAT6. Kind of assay: Inhibitory test on STAT6 activation: IL-4-induced alkali phosphatase STAT6 reporter in 293 cells stably expressing the STAT6 gene and STAT6 reporter gene. Type of assay: cell-based. The conditions noted are these: HEK293; Table 2; 1 ng/ml human recombinant IL-4, 16 hours, 293 cells with STAT6 reporter; read-out: Inhibitory activity IC50 (concentration at which the alkali phosphatase activity induced by IL-4 was inhibited by 50%). In short, it runs like this: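 HEK293 clone stably carrying STAT6 and a STAT6-element-driven alkaline phosphatase reporter, 5000 cells/well. Compound (DMSO ≤0.1%) plus 1 ng/ml human IL-4 for 16 hours. Supernatant heat-treated 65° C. 10 minutes, then alkaline phosphatase measured fluorometrically in carbonate buffer.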
A general note: A reporter such as luciferase makes a cellular process visible.

Structures can show the parent of a compound that is named as a salt.

On to `O=C(NC1=NCCS1)c1ccc(-c2cnc3ccc(-c4cn[nH]c4)cn23)cc1F` [Example 712, N1-(4,5-Dihydro-1,3-thiazol-2-yl)-2-fluoro-4-[6-(1H-4-pyrazolyl)imidazo[1,2-a]pyridin-3-yl]benzamide dihydrochloride], for which the IC50 was less than 10 nM.

For `COC1CCN(C(=O)c2ccc(-n3cnc4ccc(-c5c[nH]nc5-c5ccc(F)cc5)cc43)nc2)C1` (centres unmarked) [Example 725, 6-{6-[3-(4-Fluorophenyl)-1H-4-pyrazolyl]-1H-benzo[d]imidazol-1-yl}-pyridin-3-yl)-(3-methoxypyrrolidin-1-yl)methanone dihydrochloride], the IC50 was less than 10 nM.

As for `Fc1cccc(F)c1-c1n[nH]cc1-c1ccc2ncn(-c3ccc(Cl)cn3)c2c1` [Example 727, 1-(5-Chloropyridin-2-yl)-6-[3-(2,6-difluorophenyl)-1H-4-pyrazolyl]-1H-benzo[d]imidazole trihydrochloride], the IC50 was less than 10 nM.

Take `Cc1ccnc(NC(=O)c2ccc(-n3cnc4ccc(-c5cn[nH]c5)cc43)cc2F)c1` [Example 728, N1-(4-Methyl-2-pyridyl)-2-fluoro-4-[6-(1H-4-pyrazolyl)-1H-benzo[d]imidazol-1-yl]benzamide trihydrochloride]: the IC50 was less than 10 nM.

Turning to `C[C@H](NC(=O)c1ccc(-n2cnc3ccc(-c4cn[nH]c4)cc32)cc1F)C(=O)c1ccc(F)cc1` [Example 729, N1-[(1S)-2-(4-Fluorophenyl-1-methyl-2-oxoethyl)-2-fluoro-4-[6-(1H-4-pyrazolyl)-1H-benzo[d]imidazol-1-yl]benzamide hydrochloride], the IC50 was less than 10 nM.

As for `CS(=O)(=O)c1cc(F)cc(N2CCN(c3ncnc4ccc(-c5cn[nH]c5)cc34)CC2)c1` [Example 845, 4-[4-(3-Fluoro-5-methylsulfonylphenyl)piperazin-1-yl]-6-(1H-4-pyrazolyl)quinazoline dihydrochloride], the IC50 is less than 10 nM.

For the compound `O=S(=O)(c1ccc(-c2ncnc3ccc(-c4c[nH]nc4-c4ccc(F)cc4)cc23)s1)N1CCCC1` [Example 850, 6-[3-(4-Fluorophenyl)-1H-pyrazol-4-yl]-4-[5-(pyrrolidine-1-sulfonyl)thiophen-2-yl]quinazoline dihydrochloride], the IC50 lay in the range of 100 to 1000 nM.

As to `CN(C)CCN(C)S(=O)(=O)c1ccc(-c2ncnc3ccc(-c4c[nH]nc4-c4ccc(F)cc4)cc23)s1` [Example 855, 5-{6-[3-(4-Fluorophenyl)-1H-pyrazol-4-yl]quinazolin-4-yl}-thiophen-2-sulfonic acid (2-dimethylaminoethyl)methylamide trihydrochloride], the IC50 was less than 10 nM.

For the compound `CN(c1ccccc1)S(=O)(=O)c1ccc(-c2ncnc3ccc(-c4c[nH]nc4-c4ccc(F)cc4)cc23)s1` [Example 856, 5-{6-[3-(4-Fluorophenyl)-1H-pyrazol-4-yl]quinazolin-4-yl}-thiophen-2-sulfonic acid methylphenylamide dihydrochloride], the IC50 is 100 to 1000 nM.

`CN(CC(=O)c1ccc(F)cc1)S(=O)(=O)c1ccc(-c2ncnc3ccc(-c4c[nH]nc4-c4ccc(F)cc4)cc23)s1` [Example 866, 5-{6-[3-(4-Fluorophenyl)-1H-pyrazol-4-yl]quinazolin-4-yl}thiophen-2-sulfonic acid [2-(4-fluorophenyl) 2-oxoethyl]methylamide dihydrochloride]: the IC50 fell in the range of 10 to 100 nM.

Regarding `O=C(Nc1ccc(F)cc1F)c1ccc(-c2ncnc3ccc(-c4cn[nH]c4)cc23)s1` [Example 869, 5-[6-(1H-Pyrazol-4-yl)quinazolin-4-yl]thiophen-2-carboxylic acid (2,4-difluorophenyl)amide dihydrochloride], the IC50 fell in the range of 10 to 100 nM.

As to `O=C(Nc1nccs1)c1ccc(-c2ncnc3ccc(-c4cn[nH]c4)cc23)cc1F` [Example 872, 2-Fluoro-N-thiazol-2-yl-4-[6-(1H-pyrazol-4-yl)quinazolin-4-yl]benzamide trihydrochloride], the IC50 lay within 10 to 100 nM.

Regarding `O=C(NC1CC1)c1ccc(-c2ncnc3ccc(-c4c[nH]nc4-c4ccc(F)cc4F)cc23)cc1F` [Example 873, N-Cyclopropyl-4-{6-[3-(2,4-difluorophenyl)-1H-pyrazol-4-yl]quinazolin-4-yl}-2-fluorobenzamide dihydrochloride], the IC50 was in the range of 100 to 1000 nM.

For the compound `Cc1n[nH]cc1-c1ccc2ncnc(N3CCC(Oc4cccc(C#N)c4)CC3)c2c1` [Example 876, 3-{1-[6-(3-Methyl-1H-pyrazol-4-yl)quinazolin-4-yl]piperidin-4-yloxy} benzonitrile trihydrochloride], the IC50 was in the range of 10 to 100 nM.

Take `CS(=O)(=O)c1ccc(C(=O)C2CCN(c3ncnc4ccc(-c5cn[nH]c5)cc34)CC2)s1` [Example 880, (5-Methylsulfonylthiophen-2-yl)-{1-[6-(1H-pyrazol-4-yl)quinazolin-4-yl]piperidin-4-yl}methanone trihydrochloride]: the IC50 was in the range of 10 to 100 nM.

Turning to `CNc1ccc(-c2n[nH]cc2-c2ccc3ncnc(-c4ccc(S(C)(=O)=O)s4)c3c2)cc1` [Example 883, (4-{4-[4-(5-Methylsulfonylthiophen-2-yl)quinazolin-6-yl]-1H-pyrazol-3-yl}phenyl) methylamine], the IC50 is less than 10 nM.

As for `CS(=O)(=O)c1ccc(-c2ncnc3ccc(-c4c[nH]nc4-c4ccc(N5CCOCC5)cc4)cc23)s1` [Example 887, 4-(5-Methylsulfonylthiophen-2-yl)-6-[3-(4-morpholin-4-ylphenyl)-1H-pyrazol-4-yl] quinazoline], the IC50 was 10 to 100 nM.

Regarding `COc1ccc(-c2ccc(-c3n[nH]cc3-c3ccc4ncnc(-c5ccc(S(C)(=O)=O)s5)c4c3)cc2)cn1` [Example 889, 6-{3-[4-(6-Methoxypyridin-3-yl)phenyl]-1H-pyrazol-4-yl}-4-(5-methylsulfonylthiophen-2-yl) quinazoline], the IC50 lay within 10 to 100 nM.

Consider `Cc1ccc(-c2n[nH]cc2-c2ccc3ncnc(-c4ccc(S(C)(=O)=O)s4)c3c2)cc1` [Example 890, 4-(5-Methylsulfonylthiophen-2-yl)-6-(3-p-tolyl-1H-pyrazol-4-yl) quinazoline], for which the IC50 is less than 10 nM.

As for `CS(=O)(=O)c1ccc(-c2ncnc3ccc(-c4c[nH]nc4-c4ccc(OC(F)(F)F)cc4)cc23)s1` [Example 892, 4-(5-Methylsulfonylthiophen-2-yl)-6-[3-(4-trifluoromethoxyphenyl)-1H-pyrazol-4-yl] quinazoline], the IC50 lay within 10 to 100 nM.

With `CS(=O)(=O)c1ccc(-c2ncnc3ccc(-c4c[nH]nc4-c4ccc(Cl)cc4F)cc23)s1` [Example 894, 6-[3-(4-Chloro-2-fluorophenyl)-1H-pyrazol-4-yl]-4-(5-methylsulfonylthiophen-2-yl) quinazoline], the IC50 was less than 10 nM.

`CSc1ccc(-c2n[nH]cc2-c2ccc3ncnc(-c4ccc(S(C)(=O)=O)s4)c3c2)cc1` [Example 895, 6-[3-(4-Methylsulfanylphenyl)-1H-pyrazol-4-yl]-4-(5-methylsulfonylthiophen-2-yl) quinazoline]: the IC50 is less than 10 nM.

For the compound `CCS(=O)(=O)c1ccc(-c2ncnc3ccc(-c4c[nH]nc4-c4ccc(F)cc4)cc23)s1` [Example 896, 4-(5-Ethanesulfonylthiophen-2-yl)-6-[3-(4-fluorophenyl)-1H-pyrazol-4-yl] quinazoline], the IC50 was less than 10 nM.

On to `CS(=O)(=O)c1cnc(-c2ncnc3ccc(-c4c[nH]nc4-c4ccc(F)cc4)cc23)s1` [Example 897, 6-[3-(4-Fluorophenyl)-1H-pyrazol-4-yl]-4-(5-methylsulfonylthiazol-2-yl) quinazoline], for which the IC50 is less than 10 nM.

Turning to `CS(=O)(=O)c1cnc(-c2ncnc3ccc(-c4c[nH]nc4-c4c(F)cccc4F)cc23)s1` [Example 899, 6-[3-(2,6-Difluorophenyl)-1H-pyrazol-4-yl]-4-(5-methylsulfonylthiazol-2-yl) quinazoline], the IC50 is less than 10 nM.

As to `CS(=O)(=O)c1ccc(-c2ncnc3ccc(-c4c[nH]nc4-c4ccc(F)cc4)cc23)o1` [Example 900, 6-[3-(4-Fluorophenyl)-1H-pyrazol-4-yl]-4-(5-methylsulfonylfuran-2-yl) quinazoline], the IC50 was 10 to 100 nM.

Turning to `CS(=O)(=O)c1ccc(-c2ncnc3ccc(-c4c[nH]nc4[N+](=O)[O-])cc23)s1` [Example 901, 4-(5-Methylsulfonylthiophen-2-yl)-6-(3-nitro-1H-pyrazol-4-yl) quinazoline], the IC50 lay in the range of 100 to 1000 nM.

As for `O=S(=O)(c1ccc(-c2ncnc3ccc(-c4c[nH]nc4-c4ccc(F)cc4)cc23)s1)C1CC1` [Example 902, 4-(5-Cyclopropanesulfonylthiophen-2-yl)-6-[3-(4-fluorophenyl)-1H-pyrazol-4-yl] quinazoline], the IC50 is less than 10 nM.

Consider `O=S(=O)(c1ccc(-c2ncnc3ccc(-c4c[nH]nc4-c4ccc(F)cc4F)cc23)s1)C1CC1` [Example 903, 4-(5-Cyclopropanesulfonylthiophen-2-yl)-6-[3-(2,4-difluorophenyl)-1H-pyrazol-4-yl] quinazoline], for which the IC50 is less than 10 nM.

For `CS(=O)(=O)c1ccc(-c2ncnc3ccc(-c4c[nH]nc4CN4CCOCC4)cc23)s1` [Example 904, 4-(5-Methylsulfonylthiophen-2-yl)-6-(3-morpholin-4-ylmethyl-1H-pyrazol-4-yl) quinazoline], the IC50 lay in the range of 100 to 1000 nM.

With `CS(=O)(=O)c1ccc(-c2ncnc3ccc(-c4c[nH]nc4COc4ccc(F)cc4F)cc23)s1` [Example 905, 6-[3-(2,4-Difluorophenoxymethyl)-1H-pyrazol-4-yl]-4-(5-methylsulfonylthiophen-2-yl) quinazoline], the IC50 lay within 100 to 1000 nM.

Turning to `CS(=O)(=O)c1ccc(-c2ncnc3ccc(-c4c[nH]nc4CNc4ccc(F)cc4F)cc23)s1` [Example 906, 2,4-Difluorophenyl{4-[4-(5-methylsulfonylthiophen-2-yl)quinazolin-6-yl]-1H-pyrazol-3-ylmethyl} amine], the IC50 is 100 to 1000 nM.

Values taken from patent US7074801B1, “Nitrogen-containing condensed cyclic compound having a pyrazolyl group as a substituent group and pharmaceutical composition thereof” (Eisai Co., Ltd., priority 2001, dated 2006).
